Assay results taken from ChEMBL document CHEMBL1151127, “Studies of Swedish Marine Organisms, Part X. Biologically Active Compounds from the Marine Sponge Geodia baretti” (1988).

Legend:
Ileum [1] = assay: Contractile activity in guinea pig ileum at 15 ug/ml relative to histamine; assay type: functional, Cavia porcellus
Ileum [2] = assay: Inhibition of electrically-stimulated contraction in guinea pig ileum at 15 ug/ml; assay type: functional; settings: Cavia porcellus
Ileum [3] = assay: Contractile activity in guinea pig ileum at 67 ug/ml relative to histamine; assay type: functional, Cavia porcellus
Ileum [4] = assay: Inhibition of electrically-stimulated contraction in guinea pig ileum at 67 ug/ml; assay type: functional; settings: Cavia porcellus
Ileum [5] = assay: Contractile activity in guinea pig ileum at 200 ug/ml relative to histamine; assay type: functional, Cavia porcellus
Ileum [6] = assay: Inhibition of electrically-stimulated contraction in guinea pig ileum at 200 ug/ml; assay type: functional; settings: Cavia porcellus
Ileum [7] = assay: Contractile activity in guinea pig ileum at 1200 ug/ml relative to histamine; assay type: functional, Cavia porcellus
Ileum [8] = assay: Inhibition of electrically-stimulated contraction in guinea pig ileum at 1200 ug/ml; assay type: functional; settings: Cavia porcellus
Ileum [9] = assay: Contractile activity in guinea pig ileum at 50 ug/ml relative to histamine; assay type: functional, Cavia porcellus
Ileum [10] = assay: Inhibition of electrically-stimulated contraction in guinea pig ileum at 50 ug/ml; assay type: functional; settings: Cavia porcellus
Ileum [11] = assay: Contractile activity in guinea pig ileum at 232 ug/ml relative to histamine; assay type: functional, Cavia porcellus
Ileum [12] = assay: Inhibition of electrically-stimulated contraction in guinea pig ileum at 232 ug/ml; assay type: functional; settings: Cavia porcellus

Question: Which results are given for `Nc1ncnc2c1ncn2[C@@H]1O[C@H](CO)[C@@H](O)[C@H]1O` [ADENOSINE]?
Answer: Activity (Ileum [1]): 0%; inhibition at 15 µg/mL (Ileum [2]): 85%

Question: Which Activity (Ileum [3]) does the source give for `Cn1c(=N)ccn([C@@H]2O[C@H](CO)[C@@H](O)[C@H]2O)c1=O` here?
Answer: 60%

Question: And the inhibition at 67 µg/mL (Ileum [4])?
Answer: 0%

Question: How did the Activity (Ileum [5]) turn out when `O=c1[nH]cnc2c1ncn2[C@@H]1O[C@H](CO)[C@@H](O)[C@H]1O` [INOSINE] was run?
Answer: 0%

Question: What about the inhibition at 200 µg/mL (Ileum [6]) of the same compound?
Answer: 23%

Question: What does the source list for `Nc1ccn([C@H]2C[C@H](O)[C@@H](CO)O2)c(=O)n1` [DOXECITINE]?
Answer: Activity (Ileum [7]): 0%; inhibition at 1200 µg/mL (Ileum [8]): 27%

Question: With `Nc1ccn([C@@H]2O[C@H](CO)[C@@H](O)[C@H]2O)c(=O)n1` [CYTIDINE] as the compound, how does the Activity (Ileum [7]) read?
Answer: 0%

Question: And the inhibition at 1200 µg/mL (Ileum [8])?
Answer: 0%

Question: Which results are given for `N=C(N)NCCC[C@@H]1NC(=O)/C(=C/c2c[nH]c3cc(Br)ccc23)NC1=O` [BARETTIN]?
Answer: Activity (Ileum [1]): 0%; inhibition at 15 µg/mL (Ileum [2]): 62%

Question: Which results are given for `O=c1ccn([C@@H]2O[C@H](CO)[C@@H](O)[C@H]2O)c(=O)[nH]1` [URIDINE]?
Answer: Activity (Ileum [7]): 0%; inhibition at 1200 µg/mL (Ileum [8]): 83%

Question: Which Activity (Ileum [9]) does the source give for `Cn1c(=O)ccn([C@H]2C[C@H](O)[C@@H](CO)O2)c1=O` here?
Answer: 0%

Question: What about the inhibition at 50 µg/mL (Ileum [10]) of the same compound?
Answer: 0%

Question: For `Cn1c(=N)ccn([C@H]2C[C@H](O)[C@@H](CO)O2)c1=O`, which Activity (Ileum [11]) is on record?
Answer: 60%

Question: What about the inhibition at 232 µg/mL (Ileum [12]) of the same compound?
Answer: 0%
